Results published in article PMC8640168 (Current Research in Structural Biology, 2021).

Target: SaPgsA (Staphylococcus aureus, UniProt P63756)
Assay: […]-G3P incorporation into chloroform-soluble PGP, scintillation counting
Format: biochemical
Settings: 1.6 mM [14C]-G3P, 100 mM MgCl2, 20 mM Triton X-100, 100 mM Tris-HCl pH 8.0, 27 C, 50 nM enzyme; detergent micelle (bulk concentration)

Km: 400 µM
Substance: CDP-DAG
